Entries after “also recorded” stand apart in the source; their conditions may differ.
Tests used:
[1] = Stability in mouse plasma; type: in vitro ADME; details: read-out: Plasma stability t1/2
Procedure: The plasma stability of the compounds was evaluated in mouse plasma provided from Sigma-Aldrich, Oakville, Canada. The main stock solutions of the compounds were prepared at 10 mM in DMSO, which was diluted to 100 μM in 50% acetonitrile (ACN)/50% water. Aliquots of 356.5 μL of plasma proteins were placed in a heating block and allowed to equilibrate at 37 °C for 5 min. Then, 3.5 μL of 100 μM compound solutions were added to each vial (final concentration of 1 μM). Three quality control (QC) samples at 100, 500, and 1000 nM were prepared in 0.5% ACN. The vial contents were transferred in 50 μL aliquots at time points of 0.5, 5, 10, 20, 30, and 60 mi to a 96-well autosampler plate containing 150 μL of protein precipitation solution. Ice-cold ACN containing internals standards (100 nM glyburide) were used as the protein precipitation solution. After centrifugation at 4 °C, 5500 rpm for 15 min, the supernatant was diluted in MQ water, and injected into the LC/MS/MS for quantitative analysis.
The mobile phase consisted of (A) 0.1% (v/v) formic acid in Milli-Q water; (B) 0.1% (v/v) formic acid in acetonitrile. […] Peak areas were determined from extracted ion chromatograms. The in vitro half-life (t1/2) of parent compounds were determined by regression analysis of the percent parent disappearance vs time curve.

CD-1 mice = test: Maximum tolerated dose / 5 day toxicity study; type: in vivo; details: 20 mg/kg P.O., daily for 5 days, listed as KT-531, 20 mg/kg
Procedure: Acute toxicity of the lead inhibitors was studied using 4–12 week old male CD-1 mice (Charles River). A concentration of 20 mg/kg of inhibitor via oral gavage was administered to mice (n = 5) over 5 days. The vehicle consisted of 10% DMSO, 5% Cremophor EL, and 85% saline. Mice were monitored daily for toxicity effects including excessive changes in weight and hair as well as changes to posture and inactivity. All mouse studies were approved by the Local Animal Care Committee at the University of Toronto and Office of Laboratory Animal Welfare (OLAW). The mice were housed in Tecniplast Blueline ventilated cages with environmental enrichment and fed a Teklad 2019 diet supplemented with municipal water.

acetylated α-tubulin = test: Western blot in MV4-11 cells; type: cell-based; details: MV4-11, 6 h, higher inhibitor concentrations
Procedure: Briefly, MV4-11 cells were incubated with inhibitors prior to cell lysis with radioimmunoprecipitation assay (RIPA) buffer (20 mM Tris pH 7.4, 150 mM NaCl, 0.5% deoxycholate, 1% Triton X-100, and 0.1% sodium dodecyl sulfate (SDS)). Total protein content was determined through a BCA assay (ThermoFisher), resolved via a 4–20% polyacrylamide SDS gel, and transferred to a nitrocellulose membrane (Bio-Rad). The membranes were blocked with a 5% solution (skimmed milk powder in PBS-T). This was followed by incubation at 4 °C (overnight) with the following antibodies: acetylated α-tubulin mouse monoclonal (MABT868, EMD Millipore), acetylated histone H3 (Ac-Lys18, 07–354, Sigma), PARP-1 (ab227244, Abcam), apoptosis Western blot cocktail (136812, Abcam), cleaved PARP-1 (ab32561, Abcam), and HSC70 (sc-7298, Santa Cruz). Following overnight incubation, horseradish peroxidase (HRP)-conjugated goat anti-mouse IgG secondary antibody (7076, Cell Signaling) or HRP-linked anti-rabbit IgG secondary antibody (7074, Cell Signaling) was applied to the membrane in a 1:5000 dilution. The bands were visualized using clarity Western ECL substrate luminal/enhancer solution and peroxide solution. Western blotting analysis was carried out using Image lab software (Bio-Rad).[47],[50],[70]

O=C(NO)c1ccc(CN(C2CC2)S(=O)(=O)c2cc(F)c(F)c(F)c2F)cc1 [Compound 14, 4-(((N-Cyclopropyl-2,3,4,5-tetrafluorophenyl)sulfonamido)methyl)-N-hydroxybenzamide]
half-life at 1 μM [1]: 41 min
in vivo toxicity (CD-1 mice): no visible signs of toxicity or weight loss; also recorded: no observable toxicity in vivo
acetylated α-tubulin levels (Western blot) (acetylated α-tubulin): comparable between citarinostat and KT-531
